± gives the expanded uncertainty stated by the source.
Assay: molar heat capacity at constant pressure
Conditions: 101.33 kPa, Metastable crystal, Vacuum adiabatic calorimetry

## O=P([O-])([O-])[O-].[Tb+3] [terbium orthophosphate]
7 K
  molar heat capacity at constant pressure: 0.2233 ± 0.014 J/K/mol
8 K
  molar heat capacity at constant pressure: 0.3348 ± 0.019 J/K/mol
8.48 K
  molar heat capacity at constant pressure: 0.404 ± 0.027 J/K/mol
9 K
  molar heat capacity at constant pressure: 0.4742 ± 0.026 J/K/mol
9.05 K
  molar heat capacity at constant pressure: 0.511 ± 0.033 J/K/mol
9.71 K
  molar heat capacity at constant pressure: 0.655 ± 0.042 J/K/mol
10 K
  molar heat capacity at constant pressure: 0.6496 ± 0.035 J/K/mol
10.37 K
  molar heat capacity at constant pressure: 0.779 ± 0.049 J/K/mol
11.05 K
  molar heat capacity at constant pressure: 0.934 ± 0.058 J/K/mol
11.74 K
  molar heat capacity at constant pressure: 1.116 ± 0.069 J/K/mol
12 K
  molar heat capacity at constant pressure: 1.115 ± 0.057 J/K/mol
12.45 K
  molar heat capacity at constant pressure: 1.328 ± 0.082 J/K/mol
13.16 K
  molar heat capacity at constant pressure: 1.551 ± 0.095 J/K/mol
13.89 K
  molar heat capacity at constant pressure: 1.784 ± 0.11 J/K/mol
14 K
  molar heat capacity at constant pressure: 1.738 ± 0.089 J/K/mol
14.62 K
  molar heat capacity at constant pressure: 2.037 ± 0.12 J/K/mol
15.36 K
  molar heat capacity at constant pressure: 2.349 ± 0.14 J/K/mol
16 K
  molar heat capacity at constant pressure: 2.51 ± 0.13 J/K/mol
16.12 K
  molar heat capacity at constant pressure: 2.666 ± 0.16 J/K/mol
16.88 K
  molar heat capacity at constant pressure: 2.985 ± 0.18 J/K/mol
17.64 K
  molar heat capacity at constant pressure: 3.316 ± 0.2 J/K/mol
18 K
  molar heat capacity at constant pressure: 3.404 ± 0.17 J/K/mol
18.41 K
  molar heat capacity at constant pressure: 3.69 ± 0.22 J/K/mol
19.18 K
  molar heat capacity at constant pressure: 4.058 ± 0.24 J/K/mol
19.96 K
  molar heat capacity at constant pressure: 4.44 ± 0.27 J/K/mol
20 K
  molar heat capacity at constant pressure: 4.388 ± 0.22 J/K/mol
21.2 K
  molar heat capacity at constant pressure: 5.035 ± 0.11 J/K/mol
22.67 K
  molar heat capacity at constant pressure: 5.753 ± 0.12 J/K/mol
24.17 K
  molar heat capacity at constant pressure: 6.522 ± 0.14 J/K/mol
25 K
  molar heat capacity at constant pressure: 7.043 ± 0.14 J/K/mol
25.69 K
  molar heat capacity at constant pressure: 7.302 ± 0.15 J/K/mol
27.22 K
  molar heat capacity at constant pressure: 8.099 ± 0.17 J/K/mol
28.76 K
  molar heat capacity at constant pressure: 8.951 ± 0.18 J/K/mol
30 K
  molar heat capacity at constant pressure: 9.779 ± 0.2 J/K/mol
30.31 K
  molar heat capacity at constant pressure: 9.817 ± 0.2 J/K/mol
31.87 K
  molar heat capacity at constant pressure: 10.74 ± 0.22 J/K/mol
33.44 K
  molar heat capacity at constant pressure: 11.64 ± 0.24 J/K/mol
35 K
  molar heat capacity at constant pressure: 12.55 ± 0.26 J/K/mol
35.02 K
  molar heat capacity at constant pressure: 12.43 ± 0.25 J/K/mol
36.6 K
  molar heat capacity at constant pressure: 13.44 ± 0.27 J/K/mol
38.18 K
  molar heat capacity at constant pressure: 14.4 ± 0.29 J/K/mol
39.77 K
  molar heat capacity at constant pressure: 15.33 ± 0.31 J/K/mol
40 K
  molar heat capacity at constant pressure: 15.41 ± 0.31 J/K/mol
41.38 K
  molar heat capacity at constant pressure: 16.26 ± 0.2 J/K/mol
42.98 K
  molar heat capacity at constant pressure: 17.22 ± 0.21 J/K/mol
44.6 K
  molar heat capacity at constant pressure: 18.17 ± 0.23 J/K/mol
45 K
  molar heat capacity at constant pressure: 18.37 ± 0.19 J/K/mol
46.24 K
  molar heat capacity at constant pressure: 19.19 ± 0.24 J/K/mol
47.86 K
  molar heat capacity at constant pressure: 20.2 ± 0.25 J/K/mol
49.48 K
  molar heat capacity at constant pressure: 21.22 ± 0.26 J/K/mol
50 K
  molar heat capacity at constant pressure: 21.44 ± 0.22 J/K/mol
51.11 K
  molar heat capacity at constant pressure: 22.24 ± 0.27 J/K/mol
52.74 K
  molar heat capacity at constant pressure: 23.26 ± 0.29 J/K/mol
54.37 K
  molar heat capacity at constant pressure: 24.23 ± 0.3 J/K/mol
55 K
  molar heat capacity at constant pressure: 24.56 ± 0.25 J/K/mol
56 K
  molar heat capacity at constant pressure: 25.23 ± 0.31 J/K/mol
57.64 K
  molar heat capacity at constant pressure: 26.25 ± 0.32 J/K/mol
59.28 K
  molar heat capacity at constant pressure: 27.25 ± 0.33 J/K/mol
60 K
  molar heat capacity at constant pressure: 27.69 ± 0.29 J/K/mol
60.93 K
  molar heat capacity at constant pressure: 28.25 ± 0.35 J/K/mol
62.57 K
  molar heat capacity at constant pressure: 29.31 ± 0.36 J/K/mol
64.22 K
  molar heat capacity at constant pressure: 30.35 ± 0.37 J/K/mol
65.88 K
  molar heat capacity at constant pressure: 31.35 ± 0.38 J/K/mol
67.53 K
  molar heat capacity at constant pressure: 32.33 ± 0.4 J/K/mol
69.19 K
  molar heat capacity at constant pressure: 33.27 ± 0.41 J/K/mol
70 K
  molar heat capacity at constant pressure: 33.8 ± 0.35 J/K/mol
71.05 K
  molar heat capacity at constant pressure: 34.29 ± 0.42 J/K/mol
73.13 K
  molar heat capacity at constant pressure: 35.52 ± 0.43 J/K/mol
75.2 K
  molar heat capacity at constant pressure: 36.74 ± 0.45 J/K/mol
77.26 K
  molar heat capacity at constant pressure: 38.04 ± 0.46 J/K/mol
79.33 K
  molar heat capacity at constant pressure: 39.29 ± 0.48 J/K/mol
80 K
  molar heat capacity at constant pressure: 39.56 ± 0.4 J/K/mol
81.4 K
  molar heat capacity at constant pressure: 40.39 ± 0.49 J/K/mol
83.47 K
  molar heat capacity at constant pressure: 41.31 ± 0.5 J/K/mol
83.73 K
  molar heat capacity at constant pressure: 41.32 ± 0.5 J/K/mol
85.54 K
  molar heat capacity at constant pressure: 42.27 ± 0.52 J/K/mol
85.78 K
  molar heat capacity at constant pressure: 42.39 ± 0.52 J/K/mol
87.61 K
  molar heat capacity at constant pressure: 43.75 ± 0.53 J/K/mol
87.83 K
  molar heat capacity at constant pressure: 43.95 ± 0.54 J/K/mol
89.69 K
  molar heat capacity at constant pressure: 44.86 ± 0.55 J/K/mol
89.89 K
  molar heat capacity at constant pressure: 45.03 ± 0.55 J/K/mol
90 K
  molar heat capacity at constant pressure: 44.91 ± 0.48 J/K/mol
91.76 K
  molar heat capacity at constant pressure: 45.8 ± 0.58 J/K/mol
91.94 K
  molar heat capacity at constant pressure: 46.03 ± 0.58 J/K/mol
93.84 K
  molar heat capacity at constant pressure: 46.75 ± 0.59 J/K/mol
94 K
  molar heat capacity at constant pressure: 47.04 ± 0.59 J/K/mol
95.93 K
  molar heat capacity at constant pressure: 47.75 ± 0.6 J/K/mol
96.06 K
  molar heat capacity at constant pressure: 48.09 ± 0.6 J/K/mol
98.01 K
  molar heat capacity at constant pressure: 48.74 ± 0.61 J/K/mol
98.12 K
  molar heat capacity at constant pressure: 49.05 ± 0.61 J/K/mol
100 K
  molar heat capacity at constant pressure: 49.89 ± 0.53 J/K/mol
100.09 K
  molar heat capacity at constant pressure: 49.85 ± 0.62 J/K/mol
100.18 K
  molar heat capacity at constant pressure: 50.06 ± 0.63 J/K/mol
102.79 K
  molar heat capacity at constant pressure: 51.27 ± 0.64 J/K/mol
102.86 K
  molar heat capacity at constant pressure: 51.16 ± 0.64 J/K/mol
106.14 K
  molar heat capacity at constant pressure: 52.71 ± 0.66 J/K/mol
109.43 K
  molar heat capacity at constant pressure: 54.24 ± 0.68 J/K/mol
110 K
  molar heat capacity at constant pressure: 54.53 ± 0.57 J/K/mol
112.71 K
  molar heat capacity at constant pressure: 55.74 ± 0.69 J/K/mol
116.01 K
  molar heat capacity at constant pressure: 57.18 ± 0.71 J/K/mol
119.3 K
  molar heat capacity at constant pressure: 58.57 ± 0.73 J/K/mol
120 K
  molar heat capacity at constant pressure: 58.89 ± 0.62 J/K/mol
122.6 K
  molar heat capacity at constant pressure: 59.95 ± 0.74 J/K/mol
125.9 K
  molar heat capacity at constant pressure: 61.32 ± 0.76 J/K/mol
129.2 K
  molar heat capacity at constant pressure: 62.65 ± 0.77 J/K/mol
130 K
  molar heat capacity at constant pressure: 63 ± 0.66 J/K/mol
132.49 K
  molar heat capacity at constant pressure: 63.94 ± 0.79 J/K/mol
135.79 K
  molar heat capacity at constant pressure: 65.24 ± 0.81 J/K/mol
139.09 K
  molar heat capacity at constant pressure: 66.54 ± 0.82 J/K/mol
140 K
  molar heat capacity at constant pressure: 66.91 ± 0.7 J/K/mol
142.39 K
  molar heat capacity at constant pressure: 67.77 ± 0.84 J/K/mol
145.69 K
  molar heat capacity at constant pressure: 69.04 ± 0.85 J/K/mol
148.98 K
  molar heat capacity at constant pressure: 70.3 ± 0.87 J/K/mol
150 K
  molar heat capacity at constant pressure: 70.62 ± 0.73 J/K/mol
152.28 K
  molar heat capacity at constant pressure: 71.55 ± 0.88 J/K/mol
155.57 K
  molar heat capacity at constant pressure: 72.72 ± 0.89 J/K/mol
158.87 K
  molar heat capacity at constant pressure: 73.84 ± 0.91 J/K/mol
160 K
  molar heat capacity at constant pressure: 74.17 ± 0.77 J/K/mol
162.16 K
  molar heat capacity at constant pressure: 74.93 ± 0.92 J/K/mol
165.45 K
  molar heat capacity at constant pressure: 76.02 ± 0.93 J/K/mol
168.73 K
  molar heat capacity at constant pressure: 77.12 ± 0.95 J/K/mol
170 K
  molar heat capacity at constant pressure: 77.56 ± 0.8 J/K/mol
172.02 K
  molar heat capacity at constant pressure: 78.29 ± 0.96 J/K/mol
175.28 K
  molar heat capacity at constant pressure: 79.23 ± 0.97 J/K/mol
178.56 K
  molar heat capacity at constant pressure: 80.19 ± 0.98 J/K/mol
180 K
  molar heat capacity at constant pressure: 80.8 ± 0.83 J/K/mol
181.84 K
  molar heat capacity at constant pressure: 81.29 ± 1 J/K/mol
185.11 K
  molar heat capacity at constant pressure: 82.39 ± 1 J/K/mol
188.38 K
  molar heat capacity at constant pressure: 83.45 ± 1 J/K/mol
190 K
  molar heat capacity at constant pressure: 83.89 ± 0.86 J/K/mol
191.65 K
  molar heat capacity at constant pressure: 84.37 ± 1 J/K/mol
194.92 K
  molar heat capacity at constant pressure: 85.28 ± 1 J/K/mol
198.18 K
  molar heat capacity at constant pressure: 86.29 ± 1.1 J/K/mol
200 K
  molar heat capacity at constant pressure: 86.85 ± 0.89 J/K/mol
201.43 K
  molar heat capacity at constant pressure: 87.36 ± 1.1 J/K/mol
205.1 K
  molar heat capacity at constant pressure: 88.44 ± 1.1 J/K/mol
209.15 K
  molar heat capacity at constant pressure: 89.46 ± 1.1 J/K/mol
210 K
  molar heat capacity at constant pressure: 89.66 ± 0.92 J/K/mol
213.21 K
  molar heat capacity at constant pressure: 90.54 ± 1.1 J/K/mol
217.26 K
  molar heat capacity at constant pressure: 91.68 ± 1.1 J/K/mol
220 K
  molar heat capacity at constant pressure: 92.36 ± 0.95 J/K/mol
221.31 K
  molar heat capacity at constant pressure: 92.89 ± 1.1 J/K/mol
225.34 K
  molar heat capacity at constant pressure: 93.96 ± 1.1 J/K/mol
229.34 K
  molar heat capacity at constant pressure: 95.06 ± 1.2 J/K/mol
230 K
  molar heat capacity at constant pressure: 94.92 ± 0.97 J/K/mol
233.27 K
  molar heat capacity at constant pressure: 95.82 ± 1.2 J/K/mol
237.28 K
  molar heat capacity at constant pressure: 96.8 ± 1.2 J/K/mol
240 K
  molar heat capacity at constant pressure: 97.37 ± 1 J/K/mol
241.28 K
  molar heat capacity at constant pressure: 97.76 ± 1.2 J/K/mol
245.26 K
  molar heat capacity at constant pressure: 98.58 ± 1.2 J/K/mol
249.23 K
  molar heat capacity at constant pressure: 99.5 ± 1.2 J/K/mol
250 K
  molar heat capacity at constant pressure: 99.7 ± 1 J/K/mol
253.16 K
  molar heat capacity at constant pressure: 100.4 ± 1.2 J/K/mol
257.1 K
  molar heat capacity at constant pressure: 101.2 ± 1.2 J/K/mol
260 K
  molar heat capacity at constant pressure: 101.9 ± 1 J/K/mol
260.99 K
  molar heat capacity at constant pressure: 102.1 ± 1.2 J/K/mol
264.86 K
  molar heat capacity at constant pressure: 102.9 ± 1.3 J/K/mol
268.76 K
  molar heat capacity at constant pressure: 103.8 ± 1.3 J/K/mol
270 K
  molar heat capacity at constant pressure: 104 ± 1.1 J/K/mol
272.6 K
  molar heat capacity at constant pressure: 104.6 ± 1.3 J/K/mol
276.41 K
  molar heat capacity at constant pressure: 105.3 ± 1.3 J/K/mol
280 K
  molar heat capacity at constant pressure: 106 ± 1.1 J/K/mol
280.2 K
  molar heat capacity at constant pressure: 105.9 ± 1.3 J/K/mol
283.96 K
  molar heat capacity at constant pressure: 106.6 ± 1.3 J/K/mol
287.7 K
  molar heat capacity at constant pressure: 107.3 ± 1.3 J/K/mol
290 K
  molar heat capacity at constant pressure: 107.9 ± 1.1 J/K/mol
